Experimental data taken from PMC10287566, “Signaling-specific inhibition of the CB1 receptor for cannabis use disorder: phase 1 and phase 2a randomized trials” (Nature Medicine, 2023).

Key:
Chemokines CXCR2 (IL-8B) = Chemokines CXCR2 (IL-8B) (Homo sapiens, UniProt P25025); assay: Eurofins binding screen
Serotonin 5-HT7 = Serotonin 5-HT7 (Homo sapiens, UniProt P34969); assay: Eurofins binding screen
Angiotensin-II AT2 = Angiotensin-II AT2 (Homo sapiens, UniProt P50052); assay: Eurofins binding screen
Galanin GAL2 = Galanin GAL2 (Homo sapiens, UniProt O43603); assay: Eurofins binding screen
Cannabinoid CB1 = Cannabinoid CB1 (Homo sapiens, UniProt P21554); assay: Eurofins binding screen
Sequence of Cannabinoid CB1 (P21554 whole entry): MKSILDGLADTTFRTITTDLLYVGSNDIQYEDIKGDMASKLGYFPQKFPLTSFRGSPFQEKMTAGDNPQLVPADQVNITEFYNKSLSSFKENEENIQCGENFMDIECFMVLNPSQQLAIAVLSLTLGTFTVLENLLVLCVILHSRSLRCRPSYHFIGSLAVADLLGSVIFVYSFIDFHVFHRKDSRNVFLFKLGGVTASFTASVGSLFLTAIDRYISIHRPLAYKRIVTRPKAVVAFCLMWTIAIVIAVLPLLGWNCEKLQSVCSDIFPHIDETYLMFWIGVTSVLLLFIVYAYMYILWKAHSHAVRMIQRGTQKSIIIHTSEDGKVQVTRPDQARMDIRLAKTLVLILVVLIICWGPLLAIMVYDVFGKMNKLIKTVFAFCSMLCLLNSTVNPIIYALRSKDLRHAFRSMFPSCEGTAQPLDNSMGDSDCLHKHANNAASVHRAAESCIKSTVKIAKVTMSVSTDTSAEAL

[1] = biological target: Cholecystokinin CCK2 (CCKB) (Homo sapiens, UniProt P32239); assay: Eurofins binding screen
Muscarinic M1 = Muscarinic M1 (Homo sapiens, UniProt P11229); assay: Eurofins binding screen
Adrenergic beta2 = Adrenergic beta2 (Homo sapiens, UniProt P07550); assay: Eurofins binding screen
Serotonin 5-HT5a = Serotonin 5-HT5a (Homo sapiens, UniProt P47898); assay: Eurofins binding screen
Adenosine A1 = Adenosine A1 (Homo sapiens, UniProt P30542); assay: Eurofins binding screen
Sequence of Adenosine A1 (P30542 whole entry): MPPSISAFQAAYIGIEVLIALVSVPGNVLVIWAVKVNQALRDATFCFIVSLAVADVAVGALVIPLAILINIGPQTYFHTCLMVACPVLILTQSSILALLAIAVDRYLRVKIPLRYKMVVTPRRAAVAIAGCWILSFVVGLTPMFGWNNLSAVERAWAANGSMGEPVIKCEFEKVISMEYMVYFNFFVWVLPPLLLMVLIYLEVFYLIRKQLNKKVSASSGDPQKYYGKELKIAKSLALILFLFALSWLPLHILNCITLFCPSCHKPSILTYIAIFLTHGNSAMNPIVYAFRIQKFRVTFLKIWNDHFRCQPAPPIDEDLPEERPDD

Purinergic channels P2X = assay: Eurofins binding screen; settings: 10 µM
Muscarinic M2 = Muscarinic M2 (Homo sapiens, UniProt P08172); assay: Eurofins binding screen
Sequence of Muscarinic M2 (P08172 whole entry): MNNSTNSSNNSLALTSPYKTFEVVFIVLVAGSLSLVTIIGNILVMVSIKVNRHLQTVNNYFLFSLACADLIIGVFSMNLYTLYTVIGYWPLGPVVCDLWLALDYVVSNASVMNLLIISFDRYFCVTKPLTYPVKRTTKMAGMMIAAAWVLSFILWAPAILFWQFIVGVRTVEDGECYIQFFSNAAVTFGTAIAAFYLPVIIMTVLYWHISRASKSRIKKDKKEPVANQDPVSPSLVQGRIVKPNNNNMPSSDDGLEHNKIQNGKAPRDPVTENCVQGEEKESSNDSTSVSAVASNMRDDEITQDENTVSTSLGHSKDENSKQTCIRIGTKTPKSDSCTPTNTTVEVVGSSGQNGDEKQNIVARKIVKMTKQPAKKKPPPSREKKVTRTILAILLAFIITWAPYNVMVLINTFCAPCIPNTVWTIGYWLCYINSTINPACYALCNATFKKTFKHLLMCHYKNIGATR

PPAR gamma = PPAR gamma (Homo sapiens, UniProt P37231); assay: Eurofins binding screen
ER = assay: Eurofins binding screen; settings: 10 µM
[2] = biological target: Cholecystokinin CCK1 (CCKA) (Homo sapiens, UniProt P32238); assay: Eurofins binding screen
Neurokinin NK3 = Neurokinin NK3 (Homo sapiens, UniProt P29371); assay: Eurofins binding screen
NOP (ORL1) = NOP (ORL1) (Homo sapiens, UniProt P41146); assay: Eurofins binding screen
Dopamine D5 = Dopamine D5 (Homo sapiens, UniProt P21918); assay: Eurofins binding screen
Sequence of Dopamine D5 (P21918 whole entry): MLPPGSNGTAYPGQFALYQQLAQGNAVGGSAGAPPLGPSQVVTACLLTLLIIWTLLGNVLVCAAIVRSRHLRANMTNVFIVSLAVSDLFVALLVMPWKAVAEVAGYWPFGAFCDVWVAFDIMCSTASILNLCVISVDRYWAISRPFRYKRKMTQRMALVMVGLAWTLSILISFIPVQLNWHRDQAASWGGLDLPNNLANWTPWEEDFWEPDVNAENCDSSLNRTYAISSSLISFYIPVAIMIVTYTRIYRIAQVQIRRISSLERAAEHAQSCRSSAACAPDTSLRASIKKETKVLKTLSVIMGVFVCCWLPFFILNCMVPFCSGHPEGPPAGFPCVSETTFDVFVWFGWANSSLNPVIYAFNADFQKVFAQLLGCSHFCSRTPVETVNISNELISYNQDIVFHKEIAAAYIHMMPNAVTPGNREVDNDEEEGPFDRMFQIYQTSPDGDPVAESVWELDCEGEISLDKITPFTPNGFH

Muscarinic M4 = Muscarinic M4 (Homo sapiens, UniProt P08173); assay: Eurofins binding screen
Sequence of Muscarinic M4 (P08173 whole entry): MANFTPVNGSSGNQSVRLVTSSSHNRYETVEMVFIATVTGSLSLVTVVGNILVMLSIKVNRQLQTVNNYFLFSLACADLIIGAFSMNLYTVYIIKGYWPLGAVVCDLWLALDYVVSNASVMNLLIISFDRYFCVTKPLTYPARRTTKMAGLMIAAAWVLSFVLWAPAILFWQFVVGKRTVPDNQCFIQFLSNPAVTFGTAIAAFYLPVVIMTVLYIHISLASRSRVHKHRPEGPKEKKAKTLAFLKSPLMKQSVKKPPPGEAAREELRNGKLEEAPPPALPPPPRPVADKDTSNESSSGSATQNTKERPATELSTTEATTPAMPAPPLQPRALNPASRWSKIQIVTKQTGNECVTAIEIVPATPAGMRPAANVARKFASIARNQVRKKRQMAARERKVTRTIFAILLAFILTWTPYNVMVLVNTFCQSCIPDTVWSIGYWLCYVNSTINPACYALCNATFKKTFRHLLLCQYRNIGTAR

[3] = tested on: Sodium channels Na+-site2; assay: Eurofins binding screen; settings: 10 µM
[4] = biological target: Calcitonin gene-related peptide CGRP (Homo sapiens, UniProt O60894+Q16602); assay: Eurofins binding screen
Sequence of Calcitonin gene-related peptide CGRP (Q16602 23-461): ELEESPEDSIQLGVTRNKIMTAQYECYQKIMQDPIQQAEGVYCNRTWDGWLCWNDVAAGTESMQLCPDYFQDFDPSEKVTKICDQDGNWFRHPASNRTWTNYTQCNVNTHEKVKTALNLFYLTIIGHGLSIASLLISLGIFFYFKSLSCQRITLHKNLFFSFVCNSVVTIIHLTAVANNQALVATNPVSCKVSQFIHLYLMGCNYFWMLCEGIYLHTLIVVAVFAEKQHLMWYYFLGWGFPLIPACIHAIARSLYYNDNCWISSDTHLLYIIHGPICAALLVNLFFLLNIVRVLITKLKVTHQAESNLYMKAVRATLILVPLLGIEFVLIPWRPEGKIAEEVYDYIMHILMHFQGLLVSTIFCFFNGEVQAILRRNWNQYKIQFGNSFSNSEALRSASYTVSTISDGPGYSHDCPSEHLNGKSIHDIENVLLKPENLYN
Sequence of Calcitonin gene-related peptide CGRP (O60894 27-148): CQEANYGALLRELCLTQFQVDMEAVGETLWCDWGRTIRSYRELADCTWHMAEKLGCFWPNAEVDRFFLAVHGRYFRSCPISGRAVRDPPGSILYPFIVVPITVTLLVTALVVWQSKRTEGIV

Adenosine A2A = Adenosine A2A (Homo sapiens, UniProt P29274); assay: Eurofins binding screen
Sequence of Adenosine A2A (P29274 whole entry): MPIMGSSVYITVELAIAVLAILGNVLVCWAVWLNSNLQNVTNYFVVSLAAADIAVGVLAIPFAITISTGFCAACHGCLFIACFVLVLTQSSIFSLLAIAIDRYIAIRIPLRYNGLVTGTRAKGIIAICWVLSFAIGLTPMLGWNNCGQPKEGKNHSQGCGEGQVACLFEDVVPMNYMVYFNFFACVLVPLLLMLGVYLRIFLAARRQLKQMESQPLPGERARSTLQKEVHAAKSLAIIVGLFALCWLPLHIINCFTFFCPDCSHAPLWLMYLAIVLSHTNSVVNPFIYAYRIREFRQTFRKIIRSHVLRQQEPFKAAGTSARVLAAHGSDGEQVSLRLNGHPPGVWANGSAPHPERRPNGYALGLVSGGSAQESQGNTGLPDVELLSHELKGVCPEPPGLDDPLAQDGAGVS

Potassium channels KV = assay: Eurofins binding screen; settings: 10 µM
Neuropeptide Y Y1 = Neuropeptide Y Y1 (Homo sapiens, UniProt P25929); assay: Eurofins binding screen
Sequence of Neuropeptide Y Y1 (P25929 whole entry): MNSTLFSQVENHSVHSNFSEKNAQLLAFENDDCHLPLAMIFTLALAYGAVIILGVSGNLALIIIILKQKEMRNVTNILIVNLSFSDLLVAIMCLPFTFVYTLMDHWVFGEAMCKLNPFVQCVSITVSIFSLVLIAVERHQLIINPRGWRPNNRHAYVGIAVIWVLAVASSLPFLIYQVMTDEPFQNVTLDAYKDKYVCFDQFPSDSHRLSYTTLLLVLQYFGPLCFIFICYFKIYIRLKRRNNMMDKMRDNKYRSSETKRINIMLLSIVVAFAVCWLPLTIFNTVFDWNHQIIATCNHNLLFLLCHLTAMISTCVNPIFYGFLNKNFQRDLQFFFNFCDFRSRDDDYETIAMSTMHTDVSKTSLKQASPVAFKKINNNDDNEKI

Dopamine transporter DAT = Dopamine transporter DAT (Homo sapiens, UniProt Q01959); assay: Eurofins binding screen
Melatonin MT1 (ML1A) = Melatonin MT1 (ML1A) (Homo sapiens, UniProt P48039); assay: Eurofins binding screen
[5] = Exposure at the highest dose tested in animals without toxicity; format: in vivo; settings: human, plasma; exposure limit for humans
Procedure: The planned dose-escalation schema for the SAD study was based on preclinical pharmacodynamics (PD), safety and toxicology data translated to humans using body surface ratios to ensure a large safety margin. For the MAD study, safety and PK data from the SAD study were used to determine doses. In both studies, all safety data for a given cohort/dose level were evaluated by a Data Safety Monitoring Board that was guided by predefined stopping criteria. The stopping criteria were based on the seriousness and severity combined with frequency of AEs that would lead to either not proceeding to the next dose level or stopping the trial. Dose escalation was also to be halted if the peak plasma levels exceeded that corresponding to the NOAEL in the most sensitive animal species (that is, the rat) in preclinical toxicology studies.

Dopamine D2S = Dopamine D2S (Homo sapiens, UniProt P14416); assay: Eurofins binding screen
Histamine H2 = Histamine H2 (Homo sapiens, UniProt P25021); assay: Eurofins binding screen
Somatostatin sst = assay: Eurofins binding screen; settings: 10 µM
mice = assay: THC-induced impairment of reality testing; format: in vivo
Muscarinic M5 = Muscarinic M5 (Homo sapiens, UniProt P08912); assay: Eurofins binding screen
sigma = assay: Eurofins binding screen; settings: 10 µM
Serotonin 5-HT2C = Serotonin 5-HT2C (Homo sapiens, UniProt P28335); assay: Eurofins binding screen
Sequence of Serotonin 5-HT2C (P28335 33-458): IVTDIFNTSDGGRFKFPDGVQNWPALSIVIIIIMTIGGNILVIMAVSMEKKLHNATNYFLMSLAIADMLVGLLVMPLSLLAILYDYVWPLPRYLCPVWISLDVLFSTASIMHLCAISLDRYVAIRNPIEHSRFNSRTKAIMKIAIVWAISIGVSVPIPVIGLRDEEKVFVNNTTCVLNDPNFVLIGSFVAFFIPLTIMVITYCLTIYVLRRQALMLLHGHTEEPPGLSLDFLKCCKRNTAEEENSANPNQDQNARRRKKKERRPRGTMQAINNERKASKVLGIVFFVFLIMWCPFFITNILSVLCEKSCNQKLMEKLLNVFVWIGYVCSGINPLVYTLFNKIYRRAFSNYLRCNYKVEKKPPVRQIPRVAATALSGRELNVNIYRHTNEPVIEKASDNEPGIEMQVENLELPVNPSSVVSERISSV

Opioid kappa (KOP) = assay: Eurofins binding screen; settings: 10 µM
PXR = PXR (Homo sapiens, UniProt O75469); assay: Eurofins binding screen
Endothelin ETA = Endothelin ETA (Homo sapiens, UniProt P25101); assay: Eurofins binding screen
Serotonin 5-HT3 = Serotonin 5-HT3 (Homo sapiens, UniProt P46098); assay: Eurofins binding screen
Neurokinin NK1 = Neurokinin NK1 (Homo sapiens, UniProt P25103); assay: Eurofins binding screen
Sequence of Neurokinin NK1 (P25103 whole entry): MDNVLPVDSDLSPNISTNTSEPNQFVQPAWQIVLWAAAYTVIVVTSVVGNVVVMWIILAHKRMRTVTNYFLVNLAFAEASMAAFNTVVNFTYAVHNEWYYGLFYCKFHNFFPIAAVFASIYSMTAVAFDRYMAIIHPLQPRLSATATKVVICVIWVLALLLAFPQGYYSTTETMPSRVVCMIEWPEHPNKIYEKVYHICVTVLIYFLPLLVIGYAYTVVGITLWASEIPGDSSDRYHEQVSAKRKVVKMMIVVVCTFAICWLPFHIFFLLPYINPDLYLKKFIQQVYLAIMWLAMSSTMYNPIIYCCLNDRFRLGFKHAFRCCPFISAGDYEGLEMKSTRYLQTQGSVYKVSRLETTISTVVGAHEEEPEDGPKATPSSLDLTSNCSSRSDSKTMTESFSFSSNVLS

[6] = read-out: Percent inhibition of control specific binding

Sequence of Serotonin 5-HT7 (P34969 whole entry): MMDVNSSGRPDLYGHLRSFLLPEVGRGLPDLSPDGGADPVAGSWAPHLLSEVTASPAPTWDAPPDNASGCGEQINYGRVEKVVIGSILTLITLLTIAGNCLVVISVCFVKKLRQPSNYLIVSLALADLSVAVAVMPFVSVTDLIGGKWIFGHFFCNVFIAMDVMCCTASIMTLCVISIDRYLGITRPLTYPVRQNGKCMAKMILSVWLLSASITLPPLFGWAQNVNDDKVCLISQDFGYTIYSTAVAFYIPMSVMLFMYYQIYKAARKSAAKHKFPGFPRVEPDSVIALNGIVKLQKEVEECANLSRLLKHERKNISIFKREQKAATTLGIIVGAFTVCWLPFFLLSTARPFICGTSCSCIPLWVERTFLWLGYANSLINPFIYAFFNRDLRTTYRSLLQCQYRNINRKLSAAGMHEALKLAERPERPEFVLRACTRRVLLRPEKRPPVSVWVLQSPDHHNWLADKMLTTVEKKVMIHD

COc1ccc(CO[C@H]2CC[C@@]3(C)C(=CC[C@H]4[C@@H]5CC[C@H](C(C)=O)[C@@]5(C)CC[C@@H]43)C2)cc1 [AEF0117, 3β-(4-methoxybenzyloxy)pregn-5-en-20-one] showed an inhibition at 10 µM (Chemokines CXCR2 (IL-8B); [6]) of -1%, an inhibition at 10 µM (Serotonin 5-HT7; [6]) of -1% and an inhibition at 10 µM (Angiotensin-II AT2; [6]) of -8%. The inhibition at 10 µM (Galanin GAL2; [6]) was -9%, the inhibition at 10 µM (Cannabinoid CB1; [6]) was 11% and the inhibition at 10 µM [1, 6] was -35%. For the same compound, the inhibition at 10 µM (Muscarinic M1; [6]) was -14%, the inhibition at 10 µM (Adrenergic beta2; [6]) was 4% and the inhibition at 10 µM (Serotonin 5-HT5a; [6]) was 1%. For the same compound, the inhibition at 10 µM (Adenosine A1; [6]) was 14%, the “Percent inhibition of control specific binding” value (“Percent inhibition” for short) (Purinergic channels P2X) was -29% and the inhibition at 10 µM (Muscarinic M2; [6]) was -3%. The inhibition at 10 µM (PPAR gamma; [6]) was 7%, the “Percent inhibition” value (ER) was 31% and the inhibition at 10 µM [2, 6] was -19%. For the same compound, the inhibition at 10 µM (Neurokinin NK3; [6]) was -1%, the inhibition at 10 µM (NOP (ORL1); [6]) was -7% and the inhibition at 10 µM (Dopamine D5; [6]) was -2%. The inhibition at 10 µM (Muscarinic M4; [6]) was 0%, the “Percent inhibition” value [3] was 5% and the inhibition at 10 µM [4, 6] was -21%. For the same compound, the inhibition at 10 µM (Adenosine A2A; [6]) was -3%, the “Percent inhibition” value (Potassium channels KV) was -5% and the inhibition at 10 µM (Neuropeptide Y Y1; [6]) was -9%. For the same compound, the inhibition at 10 µM (Dopamine transporter DAT; [6]) was 0%, the inhibition at 10 µM (Melatonin MT1 (ML1A); [6]) was -11% and the AUC [5] was 41600 ng·h/mL. For the same compound, the Cmax [5] was 4360 ng/mL, the inhibition at 10 µM (Dopamine D2S; [6]) was -1% and the inhibition at 10 µM (Histamine H2; [6]) was 3%. For the same compound, the “Percent inhibition” value (Somatostatin sst) was -4%, the “THC impairment in reality testing” value (mice) was “inhibited” and the “% Inhibition” value (mice; Impairment of reality testing) was 100%. The ID100 (mice; Impairment of reality testing) was no more than 0.015 mg/kg, the inhibition at 10 µM (Muscarinic M5; [6]) was -5% and the “Percent inhibition” value (sigma) was -4%. The inhibition at 10 µM (Serotonin 5-HT2C; [6]) was 4%, the “Percent inhibition” value (Opioid kappa (KOP)) was 1% and the inhibition at 10 µM (PXR; [6]) was 7%. The inhibition at 10 µM (Endothelin ETA; [6]) was -4%, the inhibition at 10 µM (Serotonin 5-HT3; [6]) was -7% and the inhibition at 10 µM (Neurokinin NK1; [6]) was -18%.

With CC(=O)[C@H]1CC[C@H]2[C@@H]3CC=C4C[C@@H](O)CC[C@]4(C)[C@H]3CC[C@]12C [pregnenolone, reference compound] the “Percent inhibition” value (Chemokines CXCR2 (IL-8B); 10 µM) was -10%, the “Percent inhibition” value (Serotonin 5-HT7; 10 µM) was 11% and the “Percent inhibition” value (Angiotensin-II AT2; 10 µM) was -18%. The “Percent inhibition” value (Galanin GAL2; 10 µM) was 1%, the “Percent inhibition” value (Cannabinoid CB1; 10 µM) was 10% and the “Percent inhibition” value ([1]; 10 µM) was -38%. For the same compound, the “Percent inhibition” value (Muscarinic M1; 10 µM) was -14%, the “Percent inhibition” value (Adrenergic beta2; 10 µM) was -5% and the “Percent inhibition” value (Serotonin 5-HT5a; 10 µM) was 11%. The “Percent inhibition” value (Adenosine A1; 10 µM) was -25%, the “Percent inhibition” value (Purinergic channels P2X) was 13% and the “Percent inhibition” value (Muscarinic M2; 10 µM) was -4%. The “Percent inhibition” value (PPAR gamma; 10 µM) was 4%, the “Percent inhibition” value (ER) was 26% and the “Percent inhibition” value ([2]; 10 µM) was -30%. The “Percent inhibition” value (Neurokinin NK3; 10 µM) was 11%, the “Percent inhibition” value (NOP (ORL1); 10 µM) was 2% and the “Percent inhibition” value (Dopamine D5; 10 µM) was -4%. The “Percent inhibition” value (Muscarinic M4; 10 µM) was -4%, the “Percent inhibition” value [3] was 23% and the “Percent inhibition” value ([4]; 10 µM) was -12%. The “Percent inhibition” value (Adenosine A2A; 10 µM) was -1%, the “Percent inhibition” value (Potassium channels KV) was -23% and the “Percent inhibition” value (Neuropeptide Y Y1; 10 µM) was -11%. For the same compound, the “Percent inhibition” value (Dopamine transporter DAT; 10 µM) was -12%, the “Percent inhibition” value (Melatonin MT1 (ML1A); 10 µM) was 26% and the “Percent inhibition” value (Dopamine D2S; 10 µM) was 5%. The “Percent inhibition” value (Histamine H2; 10 µM) was 9%, the “Percent inhibition” value (Somatostatin sst) was -8% and the “Percent inhibition” value (Muscarinic M5; 10 µM) was 8%. For the same compound, the “Percent inhibition” value (sigma) was 26%, the “Percent inhibition” value (Serotonin 5-HT2C; 10 µM) was -9% and the “Percent inhibition” value (Opioid kappa (KOP)) was 38%. The “Percent inhibition” value (PXR; 10 µM) was 15%, the “Percent inhibition” value (Endothelin ETA; 10 µM) was -3% and the “Percent inhibition” value (Serotonin 5-HT3; 10 µM) was 6%. The “Percent inhibition” value (Neurokinin NK1; 10 µM) was 17%.
